Test results reported in US20240368168A1, “SARM1 ENZYME ACTIVITY INHIBITOR AND APPLICATION THEREOF” (ARTIVILA BIOPHARMA, priority 2021, published 2024).

How the values were obtained:
dN-SARM1 protein [1] = molecular target: T1, dN-SARM1 protein (Homo sapiens, UniProt Q6SZW1); test: In vitro biochemical assay for inhibiting SARM1 enzymatic activity (% inhibition rate), PC6 fluorescence method; conditions: 20 μM compound; 50 μM NAD, 50 μM PC6, 50 μM NMN activator
T1 construct: the N-terminal mitochondrial localization signal peptide of SARM1 was removed
T1 sequence (Q6SZW1 28-724): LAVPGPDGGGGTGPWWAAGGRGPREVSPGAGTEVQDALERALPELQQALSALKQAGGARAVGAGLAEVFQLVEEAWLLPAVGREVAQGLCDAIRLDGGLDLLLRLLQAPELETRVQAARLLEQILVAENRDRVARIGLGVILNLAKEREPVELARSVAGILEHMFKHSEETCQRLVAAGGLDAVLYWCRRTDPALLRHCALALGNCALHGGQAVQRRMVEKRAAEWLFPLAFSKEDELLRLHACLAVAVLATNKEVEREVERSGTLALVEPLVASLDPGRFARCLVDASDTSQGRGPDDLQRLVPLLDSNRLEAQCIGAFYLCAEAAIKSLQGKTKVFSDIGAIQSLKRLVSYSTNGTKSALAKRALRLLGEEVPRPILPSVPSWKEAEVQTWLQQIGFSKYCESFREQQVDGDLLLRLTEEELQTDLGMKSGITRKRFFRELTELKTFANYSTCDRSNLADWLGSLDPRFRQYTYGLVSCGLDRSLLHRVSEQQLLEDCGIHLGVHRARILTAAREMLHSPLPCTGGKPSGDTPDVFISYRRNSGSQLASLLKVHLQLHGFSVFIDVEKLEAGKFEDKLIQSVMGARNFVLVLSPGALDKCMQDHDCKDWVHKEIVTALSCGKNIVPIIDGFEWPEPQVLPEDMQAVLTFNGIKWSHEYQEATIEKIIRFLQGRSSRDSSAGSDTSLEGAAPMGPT
Protocol: The compounds were subjected to PC6 fluorescence method measurement [Chinese Patent 202010528147.3] using the dN-SARM1 protein obtained through “(4) Protein extraction” in “Expression and purification of SARM1 protein” in the above biological activity example 1.
First, 0.05 μg/ml dN-SARM1 and 20 μM compound were incubated in 50 mM Tris-HCl (pH 7.5) solution for 10 min, and then added with 50 μM NAD and 50 μM PC6 as substrate and 50 μM NMN as activator for 30 minutes of reaction at room temperature. The concentration of each component was the final concentration in the reaction system.
During the reaction, PC6 fluorescence spectrum dynamics were detected by a microplate reader, wherein the excitation wavelength and emission wavelength for detection were 390 nm and 520 nm, respectively. Finally, the reaction rate was used to express the activity of the protein. The higher the reaction rate, the stronger the activity of the protein and the lower the inhibitory efficiency of the compound.

dN-SARM1 protein [2] = molecular target: T1, dN-SARM1 protein; test: In vitro biochemical assay for inhibiting SARM1 enzymatic activity (IC50), PC6 fluorescence method; conditions: 50 μM NAD, 50 μM PC6, 50 μM NMN activator
In short: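 Activity read as the rate of PC6 fluorescence change (390 nm excitation, 520 nm emission) over a 30 min room-temperature reaction containing final 50 μM each of NAD, PC6 and NMN activator. Enzyme, 0.05 μg/ml dN-SARM1 in 50 mM Tris-HCl pH 7.5, first incubated 10 min with compound diluted serially from 200 μM; IC50 calculated.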

Structure (SMILES)	inhibition at 20 µM (dN-SARM1 protein [1])	IC50 (dN-SARM1 protein [2])
CN(C(=O)OC(C)(C)C)c1ccc2ncc(-c3cccc(C(=O)O)c3)n2c1 [Compound 132, 3-(6-((tert-butoxycarbonyl)(methyl)amino)imidazo[1,2-a]pyridin-3-yl)benzoic acid]	> 90%	1000 to 10000 nM
CN(C(=O)OC(C)(C)C)c1ccc2ncc(-c3cccc(NC(=O)CN4CCOCC4)c3)n2c1 [Compound 147]	> 90%	–
O=C(Nc1cccc(-c2cnc3ccc(N4CCOCC4)cn23)c1)C1CCOCC1 [Compound 57]	> 90%	< 1000 nM
CNc1ccc2ncc(-c3cccc(NC(=O)COCCOC)c3)n2c1 [Compound 77]	> 90%	1000 to 10000 nM
CN(C(=O)OC(C)(C)C)c1ccc2ncc(-c3cccc(NC(=O)CN4CCC(O)C4)c3)n2c1 (centres unmarked) [Compound 148]	> 90%	–
COC(=O)c1csc(-c2cnc3ccc(NC(=O)OC(C)(C)C)cn23)c1 [Compound 124, methyl 5-(6-((tert-butoxycarbonyl)amino)imidazo[1,2-a]pyridin-3-yl)thiophene-3-carboxylate]	> 90%	1000 to 10000 nM
CNc1ccc2ncc(-c3cccc(OCC4CCOCC4)c3)n2c1 [Compound 154]	> 90%	< 1000 nM
COCCOCCNC(=O)c1cccc(-c2cnc3ccc(N(C)C(=O)OC(C)(C)C)cn23)c1 [Compound 133, tert-butyl (3-(3-((2-(2-methoxyethoxy)ethyl)carbamoyl)phenyl)imidazo[1,2-a]pyridin-6-yl)(methyl)carbamate]	50 to 89%	–
COCCOCC(=O)Nc1cccc(-c2cnc3ccc(N4CCOCC4)cn23)c1 [Compound 56]	> 90%	< 1000 nM
CC(C)(C)OC(=O)Nc1ccc2ncc(-c3cc(C(=O)NC4CCOCC4)cs3)n2c1 [Compound 125, tert-butyl (3-(4-((tetrahydro-2H-pyran-4-yl)carbamoyl)thiophen-2-yl)imidazo[1,2-a]pyridin-6-yl) carbamate]	> 90%	1000 to 10000 nM
CC(C)(C)Oc1ccc2ncc(-c3cccc(NC(=O)C4CCOCC4)c3)n2c1 [Compound 55]	> 90%	1000 to 10000 nM
CC(C)(C)OC(=O)Nc1ccc2ncc(C(=O)NCCOCCOCCNC(=O)c3cnc4ccc(NC(=O)OC(C)(C)C)cn34)n2c1 [Compound 139]	50 to 89%	–
COc1ccn2c(-c3ccccc3)cnc2c1 [Compound 26]	> 90%	< 1000 nM
CN(C(=O)OC(C)(C)C)c1ccc2ncc(-c3ccnc(N)c3)n2c1 [Compound 41]	> 90%	1000 to 10000 nM
CNc1ccc2ncc(-c3cccc(C(=O)NC4CCOCC4)c3)n2c1 [Compound 136]	> 90%	< 1000 nM
CN1CCN(c2ccc3ncc(-c4ccccc4)n3c2)CC1 [Compound 37]	50 to 89%	1000 to 10000 nM
CN(C(=O)OC(C)(C)C)c1ccc2ncc(-c3cccc(C(=O)NC4CCOCC4)c3)n2c1 [Compound 135]	50 to 89%	–
CC(C)(C)OC(=O)Nc1ccc2ncc(-c3cccc(N)c3)n2c1 [Compound 46]	> 90%	1000 to 10000 nM
CN(C(=O)OC(C)(C)C)c1ccc2ncc(-c3cccc(NC(=O)C4COC4)c3)n2c1 [Compound 150]	> 90%	1000 to 10000 nM
CC(C)(C)OC(=O)Nc1ccc2ncc(-c3ccccc3)n2n1 [Compound 22]	50 to 89%	–
CN(C)c1ccc2ncc(-c3ccccc3)n2n1 [Compound 94, N,N-dimethyl-3-phenylimidazo[1,2-b]pyridazin-6-amine]	> 90%	< 1000 nM
COCCOCC(=O)Nc1cccc(-c2cnc3ccc(CNC(=O)C(C)(C)C)cn23)c1 [Compound 146]	> 90%	1000 to 10000 nM
COc1cccn2c(-c3ccccc3)cnc12 [Compound 27]	50 to 89%	1000 to 10000 nM

Structure (SMILES)	inhibition at 20 µM (dN-SARM1 protein [1])	IC50 (dN-SARM1 protein [2])
CN(C(=O)C(F)(F)F)c1ccc2ncc(NC(=O)COCCOCCOCC(=O)Nc3cnc4ccc(N(C)C(=O)C(F)(F)F)cn34)n2c1 [Compound 142, N,N′-(3,3′-((2,2′-((oxybis(ethane-2,1-diyl))bis(oxy))bis (acetyl))bis(azadialkyl))bis(imidazo[1,2-a]pyridin-6,3-diyl))bis(2,2,2-trifluoro-N-methylacetamide)]	> 90%	–
Ic1cccc2ncc(I)n12 [Compound 28]	50 to 89%	–
CN1CCN(c2ccc3nccn3c2)CC1 [Compound 35]	50 to 89%	–
CNc1ccc2ncc(-c3cccc(S(=O)(=O)NCCOCCOC)c3)n2c1 [Compound 109, N-(2-(2-methoxyethoxy)ethyl)-3-(6-(methylamino)imidazo[1,2-a]pyridin-3-yl)benzenesulfonamide]	50 to 89%	–
Cc1ccc2ncc(-c3cccc(NC(=O)C4CCOCC4)c3)n2c1 [Compound 54]	> 90%	< 1000 nM
COCCOCC(=O)Nc1cccc(-c2cnc3ccc(NC(=O)OC(C)(C)C)cn23)c1 [Compound 58, tert-butyl (3-(3-(2-(2-methoxyethoxy)acetamido)phenyl)imidazo[1,2-a]pyridin-6-yl)carbamate]	50 to 89%	< 1000 nM
CN(C(=O)OC(C)(C)C)c1ccc2ncc(-c3cccc(NC(=O)C4CCOC4)c3)n2c1 (centres unmarked) [Compound 149]	> 90%	1000 to 10000 nM
CN(C(=O)OC(C)(C)C)c1ccc2ncc(-c3ccccc3)n2n1 [Compound 95, tert-butyl methyl(3-phenylimidazo[1,2-b]pyridazin-6-yl) carbamate]	50 to 89%	–
CC(C)(C)OC(=O)NCc1ccc2ncc(-c3cccc(N)c3)n2c1 [Compound 144]	> 90%	< 1000 nM
CC(C)(C)OC(=O)Nc1ccc2ncc(-c3ccc(C(=O)NC4CCOCC4)s3)n2c1 [Compound 127, tert-butyl (3-(5-((tetrahydro-2H-pyran-4-yl)carbamoyl)thiophen-2-yl)imidazo[1,2-a]pyridin-6-yl)carbamate]	50 to 89%	–
CCOC(=O)CCC(=O)Nc1cccc(-c2cnc3ccc(N(C)C(=O)OC(C)(C)C)cn23)c1 [Compound 151]	> 90%	1000 to 10000 nM
COCCOCC(=O)Nc1cccc(-c2cnc3ccc(NC(=O)COC)cn23)c1 [Compound 131]	> 90%	1000 to 10000 nM
CNc1ccc2ncc(Br)n2n1 [Compound 1, 3-bromo-N-methylimidazo[1,2-b]pyridazin-6-amine]	> 90%	–
COCCOCC(=O)Nc1cccc(-c2cnc3ccc(CNC(=O)OC(C)(C)C)cn23)c1 [Compound 145]	> 90%	< 1000 nM
CCOC(=O)c1ccc(-c2cnc3ccc(NC(=O)OC(C)(C)C)cn23)s1 [Compound 126, ethyl 5-(6-((tert-butoxycarbonyl)amino)imidazo[1,2-a]pyridin-3-yl)thiophen-2-carboxylate]	> 90%	–
CN(C(=O)OC(C)(C)C)c1ccc2ncc(-c3cccc(NC(=O)NC[C@@H]4CCO4)c3)n2c1 [Compound 152]	> 90%	1000 to 10000 nM
CNc1ccc2ncc(-c3cccc(S(=O)(=O)NC4CCOCC4)c3)n2c1 [Compound 110, 3-(6-(methylamino)imidazo[1,2-a]pyridin-3-yl)-N-(tetrahydro-2H-pyran-4-yl)benzenesulfonamide]	> 90%	< 1000 nM
CC(C)(C)OC(=O)NCc1ccc2ncc(I)n2c1 [Compound 143]	> 90%	1000 to 10000 nM
CCOC(=O)c1ccc2ncc(-c3ccccc3)n2c1 [Compound 24]	> 90%	1000 to 10000 nM
COCCOCC(=O)Nc1cccc(-c2cnc3ccc(N)cn23)c1 [Compound 128, N-(3-(6-aminoimidazo[1,2-a]pyridin-3-yl)phenyl)-2-(2-methoxyethoxy)acetamide]	> 90%	1000 to 10000 nM
Nc1cn2c(-c3ccccc3)cnc2cc1Cl [Compound 19]	> 90%	–
CN1CCC(C(=O)Nc2cccc(-c3cnc4ccc(N(C)C(=O)OC(C)(C)C)cn34)c2)CC1 [Compound 48]	50 to 89%	–
